Experimental findings from patent publication US20240245677A1, “SELECTED COMPOUNDS FOR TARGETED DEGRADATION OF BRD9” (C4 THERAPEUTICS, INC., priority 2021, published 2024) are described below.

Values after ≈ are worked out from the molar mass of the structure shown.

For one data set, the system named is SW982 cells. The experiment in a line: SW982 in vitro viability assay (CellTiter-Glo, 144 hours). The format is cell-based, human. The protocol: SW982 cells were obtained from ATCC (Catalog No. HTB-93, Manassas, VA, USA) and maintained in DMEM medium (Catalog No. 12430112, ThermoFisher Scientific, Waltham, MA, USA) supplemented with 10% fetal bovine serum (FBS) (Catalog No. 16000-044, Gibco, Grand Island, NY, USA) at 37° C. in an atmosphere of 5% CO2 in air. The cells were routinely sub-cultured to maintain cell density between 3×10^5-1.5×10^6 cells/mL, not to exceed 20 passages. The cells growing in an exponential growth phase were harvested by centrifugation at 1000 rpm and resuspended in fresh growth media. An aliquot was diluted 2× with Trypan Blue solution 0.4% (Catalog No. 15250061, ThermoFisher Scientific, Waltham, MA, USA) and cell count was determined. Cell concentration was adjusted with growth media to 1.0×10^4 cells/mL.
Compound 1 was prepared by dissolving neat compound in DMSO (Catalog No. D8418, Sigma-Aldrich, Inc., St. Louis, MO, USA) to generate 10 mM stock solution and stored at −20° C. 10 mM DMSO stock solution was serially diluted (half log) in DMSO to generate 10-point dose series (10000, 3160, 1000, 316, 100, 31.6, 10, 3.16, 1, 0.32 μM) in acoustic ready 384-well low dead volume microplates (Catalog No. LP-0200, Beckman Coulter Life Sciences, Indianapolis, IN, USA). 50 nL of serially diluted compound solutions were dispensed using the Echo 550 Acoustic Liquid Handler Handler (Beckman Coulter Life Sciences, Indianapolis, IN, USA) in duplicate to each 384-well black TC-treated microplate (Catalog No. 3571, Corning, Glendale, CA, USA). 50 nL DMSO was transferred to all control wells.
50 μL SW982 cells suspended in growth media at 1.0×10^4 cells/mL (500 cells/well) were dispensed using a Multidrop Combi Reagent Dispenser (Catalog No. 5840300, ThermoFisher Scientific, Waltham, MA, USA) to each well of 384-well black TC-treated microplates containing duplicate concentration range of test compounds and DMSO controls. Plates were spun briefly at 1000 rpm and cells were incubated at 37° C., 5% CO2 for 144 hours. Final concentration of DMSO was 0.1% for all samples.
Additional cell plates (TO plates) were prepared by dispensing cells into a blank 384-well black TC-treated microplate to represent cytostatic controls and processed for viability detection immediately after cell dispensing.
SW982 cell viability was determined based on quantification of ATP using CellTiter-Glo® 2.0 luminescent assay kit (Catalog No. G9243, Promega, Madison, WI, USA), which signals the presence of metabolically active cells. On Day 0 (Time 0) and Day 6 (144 hours) 25 μL CellTiter-Glo® reagent was added to each well of cell plates except the wells in column 24 and the luminescence was measured after 4 hours incubation at room temperature using an EnVision® Multilabel Reader (Catalog No. 2104-0010, Perkin Elmer Inc., Dumfries, VA, USA). Column 24 (cells without CellTiter-Glo® addition) was used as plate background or positive control (P). Cytostatic control value (CT0) was computed from TO plate read using untreated cell signals (UT=0) and positive control signals (PT=0) as below.
Percent response of compound-treated samples at a time point T were calculated by normalizing the signal with P and DMSO treated negative (N) controls on the same microtiter plate and the CT0 control:
The Response % is thus 100% if the CellTiter-Glo® signal equals that of the DMSO treated controls (i.e., normal cell growth), 0% if it equals that of untreated cell at TO (i.e., cytostasis), and −100% if it equals the no CellTiter-Glo® reagent controls (i.e., complete cytotoxicity).
Curve fit and GI50 determination was performed by 4 parametric logistic fit analysis using software such as GraphPad Prism software (GraphPad Software, LLC, San Diego, CA, USA). The fit was performed through minimization of the root mean squared error between observed and calculated values of the four-parameter logistic equation using the simplex optimizer of the Apache Commons Math library. […]
(In general: ATP-based viability assays read luminescence as a measure of living cells.)

The nature of data set [1]: Approximate solubility in solvents at 25° C. and 50° C. (visual observation). Conditions: thermodynamic from solid, 25° C., target conc. = 250 mg/mL. The data set is classed as physicochemical. How it is done: Max. volume of each solvent added was 1 mL. Approximate solubility was determined by visual observation.
Max volume of each solvent added was 1 mL. Approximate solubility was determined by visual observation.

What is called viability is a read-out of living cells in per cent, often relative to untreated cells. The term GI50 denotes the concentration at which growth is held to half of that of the control. By Solubility is commonly meant how much of the substance goes into solution per volume.

On to `COc1cc(-c2cn(C)c(=O)c(C)c2C)cc(OC)c1CN1CC[C@H](N2CCN(c3ccc(N[C@H]4CCC(=O)NC4=O)cc3F)CC2)C(F)(F)C1` [Compound 1, (S)-3-((4-(4-((S)-1-(2,6-dimethoxy-4-(1,4,5-trimethyl-6-oxo-1,6-dihydropyridin-3-yl)benzyl)-3,3-difluoropiperidin-4-yl)piperazin-1-yl)-3-fluorophenyl)amino)-piperidine-2,6-dione], for which, in the data set on SW982 cells (Homo sapiens, SW982, 144 h, 0.318 nM, read-out: % SW982 Viability Relative to Vehicle Control at 144 hr, Mean), the viability at 0.000318 µM came to 96.2%. Moreover, the viability at 0.00101 µM with SW982 cells (Homo sapiens, SW982, 144 h, 1.01 nM, read-out: % SW982 Viability Relative to Vehicle Control at 144 hr, Mean) stood at 99.6%. The viability at 0.00317 µM in the data set with SW982 cells (Homo sapiens, SW982, 144 h, 3.17 nM, read-out: % SW982 Viability Relative to Vehicle Control at 144 hr, Mean) came out at 97.2%. The viability at 0.01 µM with SW982 cells (Homo sapiens, SW982, 144 h, 10.0 nM, read-out: % SW982 Viability Relative to Vehicle Control at 144 hr, Mean) was 101%. In addition, the viability at 0.0317 µM in the data set with SW982 cells (Homo sapiens, SW982, 144 h, 31.7 nM, read-out: % SW982 Viability Relative to Vehicle Control at 144 hr, Mean) was 95.7%. Moreover, in the data set on SW982 cells (Homo sapiens, SW982, 144 h, 100 nM, read-out: % SW982 Viability Relative to Vehicle Control at 144 hr, Mean), the viability at 0.1 µM stood at 96.4%. For the same compound, the viability at 0.317 µM in the data set on SW982 cells (Homo sapiens, SW982, 144 h, 317 nM, read-out: % SW982 Viability Relative to Vehicle Control at 144 hr, Mean) amounted to 91.9%. Also, in the data set with SW982 cells (Homo sapiens, SW982, 144 h, 1000 nM, read-out: % SW982 Viability Relative to Vehicle Control at 144 hr, Mean), the viability at 1 µM worked out at 88.6%. Further, the viability at 3.161 µM in the data set on SW982 cells (Homo sapiens, SW982, 144 h, 3161 nM, read-out: % SW982 Viability Relative to Vehicle Control at 144 hr, Mean) is 85.7%. For the same compound, the viability at 9.99 µM in the data set with SW982 cells (Homo sapiens, SW982, 144 h, 9990 nM, read-out: % SW982 Viability Relative to Vehicle Control at 144 hr, Mean) amounted to 84.2%. Moreover, the GI50 in the data set on SW982 cells (Homo sapiens, SW982 cells, 144-hour treatment, read-out: Geometric Mean GI50) was greater than 10 µM. Also, the Emax in the data set on SW982 cells (Homo sapiens, SW982 cells, 144-hour treatment, read-out: Mean Emax (%) ± SD) is 84.2 ± 4.6%. Besides, the “growth inhibition at the highest concentration tested” value in the data set with SW982 cells (SW982 cells, 144-hour treatment) is on record as less than 20%. In addition, the Solubility in data set [1] (organic solvent or mixture, Acetone) is 17 to 25 mg/mL (≈ 23.9 to 35.2 mM); in data set [1] (organic solvent or mixture, Acetonitrile), 6 to 7 mg/mL (≈ 8.44 to 9.85 mM); in data set [1] (organic solvent or mixture, Ethanol), 5 to 6 mg/mL (≈ 7.03 to 8.44 mM); in data set [1] (organic solvent or mixture, Ethyl acetate), 5 to 6 mg/mL (≈ 7.03 to 8.44 mM); in data set [1] (organic solvent or mixture, Heptane), less than 5 mg/mL; in data set [1] (organic solvent or mixture, MTBE (Methyl tert-butyl ether)) it was less than 5 mg/mL. The Solubility in data set [1] (organic solvent or mixture, Methanol) is 10 to 17 mg/mL (≈ 14.1 to 23.9 mM); in data set [1] (organic solvent or mixture, Methanol/water (v:v = 95:5)), 8 to 13 mg/mL (≈ 11.3 to 18.3 mM); in data set [1] (organic solvent or mixture, THF (Tetrahydrofuran)), greater than 250 mg/mL; in data set [1] (Water) it was less than 5 mg/mL.
